Here are results for four compounds from patent publication US20030008024A1, “Therapeutic composition of herbal extracts and the uses thereof” (Advanced Herbal Therapeutics, Inc., priority 2001, published 2003).

Series [1] deals with paw swelling induced by carrageenin. Put plainly: Paw swelling induced by carrageenin in rat. The series is classed as in vivo, SD rats. The settings on record: 0.25 g/kg p.o. 3 days. As for the experimental part:
A total of 50 SD rats weighing 100-120g with equal sex distribution were randomly divided into 5 groups. The rats were treated p.o. with different doses of AHT-323, tragacanth, or aspirin once daily for 3 days. One hour later, rats were given subcutaneously injections with 0.05 ml of carrageenin (1%) in the right paw of each rat. The degree of paw swelling was measured using the drainage method before and 1, 3, 4, 5, and 6 h after injection of the carrageenin.

Another series has as its system cotton granuloma. As to the kind of experiment: Cotton granuloma and organ weights. The series is classed as in vivo, SD rats. The settings on record: 0.05 g/kg p.o. once daily 7 days. As for the experimental part:
150 SD rats weighing 150-180 g with equal sex distribution were randomly divided into 15 groups. After light anesthesia with ether, an aseptic cotton ball (10 mg) was implanted into each armpit. On that day, rats were administered p.o. with different doses of AHT-323 or DXM once daily for 7 days. Twenty four hours after the last drug administration, the rats were sacrificed and the cotton balled granuloma were removed. The wet and dry weight of the granuloma, and other organs were obtained.

In series [2] the test system is ear swelling induced by croton oil. Put plainly: Ear swelling induced by croton oil. The series is classed as in vivo, NIH mice. The settings on record: 0.003 g/kg p.o. once daily 3 days. On the procedure: A total of 60 NIH mice weighing 18-22 g with equal sex distribution were randomly divided into 6 groups. The mice were treated p.o. with different doses of AHT-323, tragacanth, or DXM once daily for 3 days. One hour after the last administration, 0.02 ml croton oil (2%) was pasted around the left auricle. Four hours later, mice were sacrificed by dislocating cervical vertebrae. The right and left ears were cut off and weighed to get the differences in the degree of ear swelling.

A further series relates to WBC of pleura. Put plainly: Migration of inflammatory cells of pleura (Fucus siliquosus glue). The settings on record: 0.05 g/kg. The series is classed as in vivo, NIH mice. On the procedure: A total of 50 NIH mice were randomly divided into five groups. 0.5% Evans blue saline was injected into caudal vein at 0.1 ml/10 g body weight. Then mice were lightly anesthetized with ether and injected with 0.03 ml of Fucus siliquosus glue into right thoracic cavity to induce inflammation. 4 h and 32 h after inflammation induction, the mice were sacrificed and 2 ml of thoracic cavity wash liquid was collected and used to count the WBC and measure the optical density (OD) at 600 nm. […] The regression equation on 4 h was y=44.13-2.01x, r=0.9625.

The next series relates to peritoneal macrophage. As to the kind of experiment: CRBC phagocytosis of peritoneal macrophage of mice. The series is classed as in vivo. The settings on record: 0.005 g/kg p.o. once daily 7 days. On the procedure: Totals of 50 NIH mice weighing 18-22 g with equal sex distribution were randomly divided into 5 groups. The mice were treated p.o. with different doses of AHT-323 or other positive control drug once daily for 7 days. 1 h after the last dose, mice were injected i.p. with 0.2 ml […] of chick (10%). 4 h later, mice were sacrificed and the peritoneal fluid was obtained. Under microscope, the amount of macrophage that phagocytosed CRBC and the amount of CRBC phagocytosed by each macrophage were counted.

Series [3] deals with adjuvant arthritis (AA) rats. Put plainly: Therapeutic effect on adjuvant arthritis rats (swelling). The series is classed as in vivo, SD rats. The settings on record: 0.01 g/kg. As for the experimental part: (§1) In the study, 60 male SD rats weighing 180-220 g were used and randomly divided into 5 groups, including three test groups, one negative and one positive control groups. The rats were given p.o. three different dosages of AHT-323, tragacanth, or prednisone, respectively, once daily for 4 consecutive weeks. 0.1 ml of Freund's Complete Adjuvant (FCA) was also injected intradermally into the plantar of left hind paw of rats […]. Each day, the maximal circumference of both left and right paw and ankle joint were measured, and the swelling degrees (mm) were calculated to determine the AHT-323 on both primary and secondary injury. The primary injury occurs at the homolateral joints of the adjuvant injection and is resulted from direct, non-specific inflammatory reaction of the body to adjuvant. Whereas the secondary injury occurs at the contralateral joints of the adjuvant injection in about two weeks after adjuvant injection and is related to auto-immune responses induced by adjuvant injection. The pathological changes of human rheumatoid arthritis is similar to that of the secondary injury in AA rats.
Totals of 50 male SD rats were divided into 5 groups with the same treatment as experiments described in section 3.3.1 except that the AHT-323 was given p.o. from d13˜d28 once daily for 2 weeks, (from the thirteenth day after injection of Freund's Complete Adjuvant).

The subject of series [4] is adjuvant arthritis (AA) rats. Put plainly: Prophylactic effect on rat adjuvant arthritis (paw and ankle swelling). The series is classed as in vivo, SD rats. The settings on record: 0.01 g/kg p.o. As for the experimental part:
The study was conducted in adjuvant arthritis (AA) rats, an experimental model for human rheumatoid arthritis.
as §1

The test system of another series is T cells of AA mice. Put plainly: T cells of AA mice (esterase stain, flow cytometry). The series is classed as in vivo, NIH mice. The settings on record: 0.012 g/kg. On the procedure: A total of 60 NIH mice weighing 20±2 g were randomly divided into 6 groups, among which four groups were injected intradermially with 0.05 ml FCA to induce AA model mice. The negative control group was injected intradermially with 0.05ml saline. The rats in AHT-323 test groups were administrated orally with AHT-323 once daily for consecutive five days. Five days later, peripheral blood was drawn from mice in all groups and stained with esterase. The percent of T cells (positive esterase stained cells) was calculated.
The above mice were anesthetized and spleens were removed and made into splenocytes suspension. CD4^+ T cells and CD8^+ T cells were assayed with flow cytometry and CD4^+/CD8^+ was calculated.

SMILES strings stand for the structures.

As for `CC(=O)Oc1ccccc1C(=O)O` [Aspirin, aspirin], the “Paw swelling rate (%)” value came out at 6.3 ± 4.1 % in series [1] (1 h); 11.1 ± 6.3 % in series [1] (3 h); 17.9 ± 7.6 % in series [1] (4 h); 18.1 ± 7.0 % in series [1] (5 h); 20.6 ± 6.0 % in series [1] (6 h).
A word on the inhibition: it is the change of the read-out against control, counted positive when it falls. As for `C[C@@H]1C[C@H]2[C@@H]3CCC4=CC(=O)C=C[C@]4(C)[C@@]3(F)[C@@H](O)C[C@]2(C)[C@@]1(O)C(=O)CO` [DXM, dexamethasone], in the series with cotton granuloma, the “Granuloma Wt. Dry Wt.” value is reported as 77 ± 17 mg/100 g, the “Granuloma Wt. Wet Wt.” value is on record as 346 ± 92 mg/100 g, the “Weight of organs: Adrenal” value is 17 ± 5 mg/100 g and the “Weight of organs: Spleen” value is recorded as 412 ± 173 mg/100 g. In addition, in the series with cotton granuloma, the “Weight of organs: Thymus” value was determined as 38 ± 13 mg/100 g and the “Weight of organs: uterus” value was determined as 126 ± 33 mg/100 g. Moreover, the “Swelling degree” value in series [2] stood at 14.13 ± 5.75 mg. In addition, in series [2] (Mus musculus, po, 72 h, read-out: Inhibition rate), the inhibition at 3 mg/kg turned out to be 68.2%. Besides, the WBC count in the series on WBC of pleura (4 h after inflammation induction) was 12.7 ± 10.2. Besides, the WBC count in the series on WBC of pleura (32 h) is 4.4 ± 4.0. Besides, in the series on peritoneal macrophage, the Phagocytic index is given as 1.10 ± 0.18 and the “Phagocytic percent (%)” value is 8.33 ± 10.13 %.
On to `C[C@]12C=CC(=O)C=C1CC[C@@H]1[C@@H]2C(=O)C[C@@]2(C)[C@H]1CC[C@]2(O)C(=O)CO` [Prednisone, prednisone], for which the Swelling degree in series [3] (primary injury, therapeutic (p.o. d13˜d28), D1) was determined as 1.78 ± 0.51 cm; in series [3] (primary injury, therapeutic (p.o. d13˜d28), d2), 1.70 ± 0.51 cm; in series [3] (primary injury, therapeutic (p.o. d13˜d28), d4), 1.63 ± 0.50 cm; in series [3] (primary injury, therapeutic (p.o. d13˜d28), d6), 1.58 ± 0.50 cm; in series [3] (primary injury, therapeutic, 2nd block col 1 (day not given)), 1.27 ± 0.46 cm; in series [3] (primary injury, therapeutic, 2nd block col 2 (day not given)), 1.09 ± 0.54 cm. The Swelling degree in series [3] (primary injury, therapeutic, 2nd block col 3 (day not given)) is 0.94 ± 0.50 cm; in series [3] (primary injury, therapeutic, 2nd block col 4 (day not given)), 0.94 ± 0.42 cm; in series [3] (secondary injury, therapeutic (p.o. d13˜d28), D1), 1.08 ± 00.41 cm; in series [3] (secondary injury, therapeutic (p.o. d13˜d28), d2), 1.18 ± 00.44 cm; in series [3] (secondary injury, therapeutic (p.o. d13˜d28), d4), 1.23 ± 00.42 cm; in series [3] (secondary injury, therapeutic (p.o. d13˜d28), d6), 1.19 ± 00.38 cm. Further, the Swelling degree in series [3] (secondary injury, therapeutic, 2nd block col 1 (day not given)) worked out at 0.88 ± 00.47 cm; in series [3] (secondary injury, therapeutic, 2nd block col 2 (day not given)), 0.95 ± 00.43 cm; in series [3] (secondary injury, therapeutic, 2nd block col 3 (day not given)) it was 0.82 ± 00.48 cm; in series [3] (secondary injury, therapeutic, 2nd block col 4 (day not given)), 0.75 ± 00.37 cm; in series [4] (primary injury, 2nd block col 1 (day not given)) it was 1.18 ± 0.76 cm; in series [4] (primary injury, 2nd block col 2 (day not given)) it was 1.03 ± 0.67 cm. For the same compound, the Swelling degree in series [4] (primary injury, 2nd block col 3 (day not given)) is reported as 1.05 ± 0.69 cm; in series [4] (primary injury, 2nd block col 4 (day not given)), 0.90 ± 0.64 cm; in series [4] (primary injury, 2nd block col 5 (day not given)) it was 0.86 ± 0.65 cm; in series [4] (primary injury, 2nd block col 6 (day not given)) it was 0.85 ± 0.59 cm; in series [4] (primary injury, d1) it was 0.64 ± 0.14 cm; in series [4] (primary injury, d2), 0.64 ± 0.16 cm. Besides, the Swelling degree in series [4] (primary injury, d3) was 0.50 ± 0.26 cm; in series [4] (primary injury, d9), 0.46 ± 0.25 cm; in series [4] (primary injury, d12), 0.72 ± 0.46 cm; in series [4] (primary injury, d14), 0.87 ± 0.46 cm; in series [4] (primary injury, d16) it was 1.28 ± 0.69 cm; in series [4] (secondary injury, 2nd block col 1 (day not given)), 0.78 ± 0.70 cm. Moreover, the Swelling degree in series [4] (secondary injury, 2nd block col 2 (day not given)) is 0.72 ± 0.71 cm; in series [4] (secondary injury, 2nd block col 3 (day not given)) it was 0.67 ± 0.64 cm; in series [4] (secondary injury, 2nd block col 4 (day not given)), 0.62 ± 0.61 cm; in series [4] (secondary injury, 2nd block col 5 (day not given)) it was 0.65 ± 0.64 cm; in series [4] (secondary injury, D9) it was 0.038 ± 0.048 cm; in series [4] (secondary injury, d2), 0.016 ± 0.039 cm. In addition, the Swelling degree in series [4] (secondary injury, d12) came to 0.14 ± 0.14 cm; in series [4] (secondary injury, d14) it was 0.38 ± 0.39 cm; in series [4] (secondary injury, d16), 0.92 ± 0.62 cm; in series [4] (secondary injury, d18) it was 0.78 ± 0.71 cm.
On to `CC(=O)OC[C@]12[C@H](OC(C)=O)[C@H](OC(C)=O)[C@@H]3[C@@H](OC(C)=O)[C@@]14O[C@@]3(C)COC(=O)c1cccnc1CCC(C)(O)C(=O)O[C@@H]([C@H](OC(=O)c1ccccc1)[C@@H]2OC(C)=O)[C@]4(C)O` (stereo partly shown) [Wilfordine], for which, in the series on T cells of AA mice, the “CD4^+/CD8^+” value is 1.70 ± 0.03. Further, the “ANAE^+ (%)” value in the series with T cells of AA mice (peripheral blood) is 48.88 ± 2.89%. Further, in the series with T cells of AA mice (splenocytes), the “CD4^+ (%)” value was 27.88 ± 1.99 % and the “CD8^+ (%)” value is reported as 16.33 ± 1.31 %.
